What was measured:
[1] = test system: convulsions induced by maximal electroshock (MES); assay: Convulsions induced by maximal electroshock (MES); format: in vivo; conditions: ip; 95% confidence limits in the next column
Experimental: (§1) Effect of MRZ 2/705 on convulsions induced by maximal electroshock (MES). […] The therapeutic index (TI) was also calculated as the ED50 for inhibition of traction reflex (Tract.) impairment or rotarod failure (Rot.) divided by the ED50 for MES-induced seizure-induced convulsions.

[2] = test system: traction reflex (Tract.) impairment; assay: Traction reflex impairment (for therapeutic index); format: in vivo; conditions: therapeutic index: ED50 for traction reflex impairment divided by ED50 for MES-induced convulsions
Experimental: as §1

rotarod failure (Rot.) = assay: Rotarod failure (for therapeutic index); format: in vivo; conditions: therapeutic index: ED50 for rotarod failure divided by ED50 for MES-induced convulsions
Experimental: as §1

[^3H]-(+)-MK-801 binding = [3H]-(+)-MK-801 binding; conditions: read-out: MK-801 Ki; means of 3-5 experiments; Cheng-Prusoff, Kd for MK-801 of […]
Experimental: (§2) Effect of MRZ 2/705 on [^3H]-(+)-MK-801 binding, NMDA-induced currents in patch clamp experiments, and glutamate toxicity in cultured cortical neurones. […] IC50s (±SEM) in patch clamp and glutamate toxicity experiments were determined from data from at least 3 concentrations producing between 15 and 85% inhibition and at least 5 cells/well per concentration.

NMDA-induced currents = NMDA-induced currents in patch clamp experiments; format: cell-based; conditions: at least 3 concentrations, at least 5 cells per concentration
Experimental: as §2

[3] = test system: cultured cortical neurones; assay: Glutamate toxicity in cultured cortical neurones; format: cell-based; conditions: Cortical neurone, read-out: Glut Tox IC50
Experimental: as §2

amygdala kindled rats = assay: Amygdala kindling model in fully kindled rats; format: in vivo, Female Wistar rats
Experimental: The substance MRZ 2/705 was tested in the amygdala kindling model in rats. In this model chronically implanted animals with stimulation and recording electrodes in the amygdala were rendered more susceptible to seizures by repeated initially subconvulsive electrical stimulation (Goddard et al., 1969, Sato el. al, 1990). Once enhanced sensitivity, characterized by generalized motor seizures, has developed, the animal is said to be fully kindled. For substance screening procedures we determine the individual threshold current that induces afterdischarges at the stimulation site.
Female Wistar rats were purchased at a body weight of 200-220g (Harlan Windelmann Versuchstierzucht, Borchen, Germany) and were then kept under controlled environmental conditions (24-25°C, 50-60% humidity, 12h light / dark cycle) with free access to standard laboratory chow (Altromin 1324 standard diet) and tap water. All experiments were performed within the same day time in the morning to minimize possible effects of circadian variation. […] These animals were previously kindled and used to test other compounds. The period between the previous and current studies was long enough (at least one month) so that it was ample time for a complete washout from the previously tested drug.
For implantation of kindling electrodes, rats were anaesthetized with chloral hydrate (360 mg/kg, i/p.), the skull surface was exposed, and a bipolar electrode was implanted into the right hemisphere aimed at the basolateral amygdala using the following sterotaxic coordinates according to the atlas of Paximos and Watson (1986): 2.2 mm caudal, 4.8 mm lateral, 8.5 mm ventral (all respective to bregma). The electrodes consisted of two twisted Teflon-coated stainless steel wires (250 µm diameter) separated by 0.5 mm at the tip. A screw, which served as grounding electrode, was positioned over the left parietal cortex. Bipolar and ground electrodes were connected to plugs, and the electrode assembly and anchor screws were held in place with dental carylic cement applied to the exposed skull surface. After surgery, the rats were treated with antibiotics for 1 week to prevent infection.
Following a post-operative recovery period of two weeks, constant current stimulations (500µA, 1 msec, monophasic square-wave pulses, 50 Hz for 1 s) were delivered to the amygdala once daily (five times per week) until at least 10 sequential fully kindled stage-5 seizures were elicited. Seizure severity (SS) was scored according to Racine (1972): 1 immobility, eye closure, ear twitching, twitching of vibrissae, sniffing, facial clonus; 2 head nodding associated with more severe facial clonus; 3 clonus of one forelimb; 3.5 bilateral clonus without rearing; 4 bilateral clonus accompanied by rearing; 4.5 generalized clonic seizures without rearing and falling (e.g. because of direct loss of balance); 5 rearing and falling accompanied by generalized clonic seizures. In these fully kindled rats afterdischarge threshold (ADT) was determined by administering a series of stimulations at intervals of 1 min. increasing in steps of about 20% of the previously applied current. The afterdischarge threshold was defined as the lowest current intensity producing afterdischarge with a duration of at least 5 s.
In all experiments seizure duration and afterdischarge duration were recorded in addition to seizure severity and afterdischarge threshold. Seizure duration 1 (SD1) was the time period of limbic and/or motor seizures. Limbic seizure activity which sometimes occurred after termination of secondarily generalized seizures was not included in seizure duration. Seizure duration 2 (SD2) was the time period from stimulation until the end of postictal depression phase.
Afterdischarge duration 1 (ADD1) was defined as the period of high amplitude spiking (at least 1 Hz frequency and twice the prestimulation amplitude) in the electroencephalogram (EEG) of the BLA electrode, including the time of stimulation. […]

[4] = Adverse effects in kindled rats (sedation, ataxia, rotarod test); format: in vivo, Female Wistar rats
Experimental: The substance MRZ 2/705 was dissolved in distilled water and administered i.p. Thereby applicated volume was 3 ml/kg body weight. dosages used in the experiments were 5, 10, and 20 mg/kg.
Animals were allowed to adapt to the laboratory environment, then body temperature was measured and animals were put into open cages for constant observation. 15 and 30 minutes following drug or vehicle administration behavioral alterations and body temperature were determined. Adverse effects were scored during observation in open cages and in an open field. In addition, rats were subjected to the rotarod test (polypropylene, foam-coated rod, 5cm in diameter, 8rpm). Animals were considered to have failed this test, when they fell from the rod in each of three consecutive 1-min. attempts.

[5] = 20 mg/kg i.p., in a significant manner

CC1(C)CC(C)(C)CC(C)(N2CCCC2)C1.Cl [MRZ 2/705, N-(1,3,3,5,5-Pentamethylcyclohexyl) pyrrolidine hydrochloride]
ED50 [1]: 9.55 mg/kg
TI Tract [2]: 3.9
TI Rot. (rotarod failure (Rot.)): 5.4
Ki ([^3H]-(+)-MK-801 binding): 7.14 µM
IC50 (NMDA-induced currents): 25.4 µM
IC50 [3]: 12.3 µM
average increase in afterdischarge threshold above control threshold (amygdala kindled rats; 5 mg/kg i.p.): 36%
average increase in afterdischarge threshold above control threshold (amygdala kindled rats; 10 mg/kg i.p., significant): 50%
duration of afterdischarges (amygdala kindled rats; [5]): reduced
duration of motor seizures (amygdala kindled rats; [5]): reduced
seizure severity (amygdala kindled rats; [5]): reduced
average increase in afterdischarge threshold above control threshold (amygdala kindled rats; 20 mg/kg i.p., significant): 95%
seizure parameters (seizure severity, duration of motor seizures, duration of afterdischarges) (amygdala kindled rats; lower dosages (5 and 10 mg/kg i.p.)): remained unchanged or were only influenced slightly
rotarod test ([4]; 5, 10, 20 mg/kg i.p., 8 rpm, three consecutive 1-min attempts): no failure to pass the rotarod test was observed
ataxia ([4]; 10 and 20 mg/kg i.p.): Slight ataxia
sedation ([4]; all three dosages (5, 10, 20 mg/kg i.p.)): minor signs of sedation
Min I.ct-hality (Minimal lethality i.p.): >50 mg/kg

Reference: patent EP1228052B1, “1-CYCLIC AMINO-ALKYLCYCLOHEXANE COMPOUNDS, PHARMACEUTICAL COMPOSITIONS THEREOF, AND THEIR USE AS ANTICONVULSANTS” (Merz Pharma GmbH & Co. KGaA, priority 1999, dated 2001)
